Measured values from patent publication US5214034A, “Catechol derivatives, and preventive and remedial preparations for regressive disorders in the central nervous system containing the same” (priority 1986, dated 1993).
Like-named read-outs stand apart in the source and are kept apart here.

Tests used:
[1] = system: production and secretion of NGF on L-M cells; test: Promoting action for the production and secretion of NGF on L-M cells of mouse (ELISA); format: cell-based; conditions: Mus musculus
Description: Catecholamines have also been found in a relatively high concentration to accelerate these functions without being mediated by adrenergic receptors [Y. Furukawa et al., J. Biol. Chem., 261, 6039-6047 (1986)].
The compound having a high activity in Table 1, that is, the catechol derivative having a n-alkyl group in the 3 or 4 position on the ring has been observed an acute cell toxicity in higher concentrations. The toxicity was considered the result of two hydroxyl groups in the catechol structure. Then the hydroxyl groups were esterified or etherified and the resulting derivative was examined the effect on the activity for the production and secretion of NGF.
The experiment was performed according to the procedures of Y. Furukawa et al. which is described in J. Bis Chem., 261, 6039-6047 (1986).
The medium was cultured for 3 days at a temperature of 37° C. After completing the confluency (about 10^6 cells/well), the medium was changed to Medium 199 (0.5 ml/well) containing 0.5% bovine serum albumin (Fraction V, a product of Armour Co.). The sample of the derivative is contained in the medium at a prescribed concentration as illustrated in the Tables.

[2] = system: production and secretion of NGF in brain astroglial cells; test: Promoting activity for the production and secretion of NGF in brain astroglial cells of mouse (ELISA)
Protocol: The experiment was performed by inducing the astroglial cells from mouse forebrain to culture system according to the procedures of S. Furukawa et al. which is described in Biochem. Biophys. Res. Commun., 136, 57-63 (1986).
That is, forebrains of 8-day old mice were dissected out and cut into small pieces. […] Cells and cell clamps were recovered by centrifugation at 200 xg for 5 minutes. They were cultured in Dulbecco modified Eagle's medium (a product of Gibco Co. hereinafter abbreviated as DMEM) containing 10% of fetal calf serum, […] of penicillin, and 50 μg/ml of streptomycin, for 10 to 14 days with medium changes every 3 days. After completing confluency, the cells were dissociated by trypsin treatment and recultured in new culture flasks. This procedure was repeated further twice and more. […] The cells will hereinafter be referred to as astroglial cells.
Astroglial cells were innoculated in 24-well plates having a well surface area of 2.1 cm^2 (a product of Falcon Co.) at a cell density of about 3×10^4 cells/well and cultured for 3 days in DMEM . medium supplemented with 10% of fetal calf serum. After completing confluency about 10^7 cells/well), the medium was changed to DMEM medium (0.5 ml/well) supplemented with 0.5% of bovine serum albumin ((fraction V) and cultured for 3 days. The culture was further continued with medium changes every 3 days. After cells were practically synchronized in the quiscent stage, the medium was changed to 0.5 ml of the medium supplemented with 0.5% of bovine serum albumin and containing a prescribed concentration of test sample as illustrated in Tables. […] Data are expressed as fold increase in NGF content over that in the absence of the test sample. […] Data are presented as means ±SE of four determinations.

[3] = Acute toxicity (LD50); conditions: mouse, in vivo
Protocol: The catechol derivative having normal type saturated lower alkyl groups on the ring was administered by intravenous injection (i.v.), intraperitoneal injection (i.p.) or oral route (p.o.) to male ddy mice of 4-week old. The LD50 values (mg/kg) were measured by an ordinary method.

[4] = 24 h, Table 2, 0.03 mM, 24-hr culture, read-out: Ratio of NGF increase, 24-hr culture
[5] = 24 h, Table 2, 0.15 mM, 24-hr culture, read-out: Ratio of NGF increase, 24-hr culture
[6] = 48 h, Table 2, 0.03 mM, 48-hr culture, read-out: Ratio of NGF increase, 48-hr culture
[7] = 48 h, Table 2, 0.15 mM, 48-hr culture, read-out: Ratio of NGF increase, 48-hr culture
[8] = 24 h, Table 1, 0.03 mM, 24 hours, mean ± SE of four determinations, read-out: Ratio of NGF increase
[9] = 24 h, Table 1, 0.10 mM, 24 hours, mean ± SE of four determinations, read-out: Ratio of NGF increase
[10] = 24 h, read-out: Ratio of NGF increase, Table 3, 0.10 mM, 24 hours, mean ± SE of four determinations
[11] = 24 h, read-out: Ratio of NGF increase, Table 3, 0.25 mM, 24 hours, mean ± SE of four determinations
[12] = 24 h, read-out: Ratio of NGF increase
[13] = 24 h, read-out: Ratio of NGF increase, 24-hr culture
[14] = 48 h, read-out: Ratio of NGF increase, 48-hr culture
[15] = 24 h, read-out: Ratio of NGF increase, 24-hr culture, Table 4, 0.10 mM, 24-hr culture
[16] = 24 h, read-out: Ratio of NGF increase, 24-hr culture, Table 4, 0.25 mM, 24-hr culture
[17] = 48 h, read-out: Ratio of NGF increase, 48-hr culture, Table 4, 0.10 mM, 48-hr culture
[18] = 48 h, read-out: Ratio of NGF increase, 48-hr culture, Table 4, 0.25 mM, 48-hr culture

For `COc1ccc(C)cc1O` [4-Methylguaiacol, reference compound], which fold induction at 30 µM [1, 4] is on record?
Its fold induction at 30 µM is 1.09 ± 0.06.

What about the fold induction at 150 µM [1, 5] of the same molecule?
The fold induction at 150 µM was 1.03 ± 0.05.

And the fold induction at 30 µM [1, 6]?
Its fold induction at 30 µM is 1.1 ± 0.07.

And the fold induction at 150 µM [1, 7]?
Its fold induction at 150 µM is 1 ± 0.09.

For `CNC[C@H](O)c1ccc(O)c(O)c1` [l-epinephrine, reference compound], which fold induction at 50 µM ([1]; 24 h, read-out: activity (NGF increase), 0.05 mM) is on record?
Its fold induction at 50 µM is 6.29 ± 0.11.

And the fold induction at 150 µM ([1]; 24 h, read-out: activity (NGF increase), 0.15 mM)?
The fold induction at 150 µM was 14 ± 0.83.

What about the fold induction at 100 µM ([2]; 24 h, read-out: activity (NGF increase), 0.10 mM) of the same molecule?
Its fold induction at 100 µM is 8.62 ± 1.21.

What about the fold induction at 250 µM ([2]; 24 h, read-out: activity (NGF increase), 0.25 mM) of the same molecule?
The fold induction at 250 µM was 14.6 ± 2.67.

For `CCCCc1ccc(O)c(O)c1C` [R = Two H, R1 = Methyl, R2 = n-Butyl], which fold induction at 30 µM [1, 8] is on record?
The fold induction at 30 µM was 6.87 ± 0.6.

And the fold induction at 100 µM [1, 9]?
The fold induction at 100 µM was 7.73 ± 0.53.

And the fold induction at 100 µM [2, 10]?
Its fold induction at 100 µM is 49.8 ± 3.65.

And the fold induction at 250 µM [2, 11]?
The fold induction at 250 µM was 76.2 ± 6.64.

For `CC(C)(C)c1ccc(O)c(O)c1` [R = Two H, R1 = H, R2 = tert-Butyl], which fold induction at 30 µM [1, 8] is on record?
The fold induction at 30 µM was 3.45 ± 0.35.

What about the fold induction at 100 µM [2, 10] of the same molecule?
The fold induction at 100 µM was 18.5 ± 1.5.

What about the fold induction at 250 µM [2, 11] of the same molecule?
Its fold induction at 250 µM is 18.8 ± 2.92.

Which results are given for `Cc1cccc(O)c1O` [R = Two H, R1 = Methyl, R2 = H]?
fold induction at 30 µM [1, 12]: 8.34 ± 0.82; fold induction at 100 µM [1, 12]: 3.92 ± 1.23; LD50 ([3]; ip, read-out: LD50 i.p.): > 200 mg/kg; LD50 ([3]; iv, read-out: LD50 i.v.): > 50 mg/kg; LD50 ([3]; po, read-out: LD50 p.o.): > 500 mg/kg; fold induction at 100 µM [2, 10]: 76.3 ± 6.34; fold induction at 250 µM [2, 11]: 5.02 ± 1.98

With `Oc1ccccc1O` [R = Two H, R1 = H, R2 = H, Catechol] as the molecule, how does the fold induction at 30 µM [1, 12] read?
The fold induction at 30 µM was 1.03 ± 0.04.

What about the fold induction at 100 µM [1, 12] of the same molecule?
Its fold induction at 100 µM is 1.81 ± 0.09.

What about the fold induction at 30 µM [1, 13] of the same molecule?
Its fold induction at 30 µM is 1.15 ± 0.04.

And the fold induction at 150 µM [1, 13]?
Its fold induction at 150 µM is 1.93 ± 0.12.

And the fold induction at 30 µM [1, 14]?
Its fold induction at 30 µM is 1.31 ± 0.09.

What about the fold induction at 150 µM [1, 14] of the same molecule?
The fold induction at 150 µM was 1.79 ± 0.2.

What about the fold induction at 100 µM [2, 12] of the same molecule?
The fold induction at 100 µM was 2.51 ± 0.07.

And the fold induction at 250 µM [2, 12]?
Its fold induction at 250 µM is 1.92 ± 0.09.

With `CCc1ccc(O)c(O)c1CC` [R = Two H, R1 = Ethyl, R2 = Ethyl] as the molecule, how does the fold induction at 30 µM [1, 8] read?
The fold induction at 30 µM was 3.01 ± 0.2.

And the fold induction at 100 µM [1, 9]?
Its fold induction at 100 µM is 3.24 ± 0.19.

And the fold induction at 100 µM [2, 10]?
The fold induction at 100 µM was 16.7 ± 1.84.

And the fold induction at 250 µM [2, 11]?
Its fold induction at 250 µM is 23.6 ± 1.9.

With `CCCCCc1ccc(O)c(O)c1` [R = Two H, R1 = H, R2 = n-Pentyl] as the molecule, how does the fold induction at 30 µM [1, 8] read?
Its fold induction at 30 µM is 6.37 ± 0.25.

What about the fold induction at 100 µM [1, 9] of the same molecule?
Its fold induction at 100 µM is 10.2 ± 0.71.

And the fold induction at 100 µM [2, 10]?
Its fold induction at 100 µM is 43.8 ± 4.71.

And the fold induction at 250 µM [2, 11]?
The fold induction at 250 µM was 61 ± 5.82.

What does the source list for `CCC(C)c1ccc(O)c(O)c1C` (stereo not drawn) [R = Two H, R1 = Methyl, R2 = sec-Butyl]?
fold induction at 30 µM [1, 8]: 6.74 ± 0.25; fold induction at 100 µM [1, 9]: 7 ± 0.76

With `Cc1c(C(C)(C)C)ccc(O)c1O` [R = Two H, R1 = Methyl, R2 = tert-Butyl] as the molecule, how does the fold induction at 30 µM [1, 8] read?
The fold induction at 30 µM was 2.82 ± 0.14.

What about the fold induction at 100 µM [1, 9] of the same molecule?
The fold induction at 100 µM was 3.65 ± 0.39.

What about the fold induction at 100 µM [2, 10] of the same molecule?
The fold induction at 100 µM was 9.65 ± 2.42.

What about the fold induction at 250 µM [2, 11] of the same molecule?
The fold induction at 250 µM was 24.2 ± 2.73.

With `Cc1ccc2oc(=O)oc2c1` [CO-, R1 = H, R2 = Methyl, 4-methyl-o-phenylenecarbonate] as the molecule, how does the fold induction at 30 µM [1, 4] read?
Its fold induction at 30 µM is 4.39 ± 0.62.

And the fold induction at 150 µM [1, 5]?
The fold induction at 150 µM was 4.82 ± 0.55.

What about the fold induction at 30 µM [1, 6] of the same molecule?
Its fold induction at 30 µM is 7.54 ± 0.72.

And the fold induction at 150 µM [1, 7]?
The fold induction at 150 µM was 6.99 ± 0.52.

What about the fold induction at 100 µM [2, 15] of the same molecule?
Its fold induction at 100 µM is 52.4 ± 5.29.

What about the fold induction at 250 µM [2, 16] of the same molecule?
The fold induction at 250 µM was 44.9 ± 4.25.

What about the fold induction at 100 µM [2, 17] of the same molecule?
Its fold induction at 100 µM is 73.4 ± 4.25.

And the fold induction at 250 µM [2, 18]?
Its fold induction at 250 µM is 78.3 ± 6.5.

For `CC(=O)Oc1ccc(C)cc1OC(C)=O` [R = Two acetyl, R1 = H, R2 = Methyl], which fold induction at 30 µM [1, 4] is on record?
Its fold induction at 30 µM is 4.92 ± 0.94.

What about the fold induction at 150 µM [1, 5] of the same molecule?
The fold induction at 150 µM was 4.21 ± 0.4.

And the fold induction at 30 µM [1, 6]?
Its fold induction at 30 µM is 7.71 ± 0.86.

What about the fold induction at 150 µM [1, 7] of the same molecule?
The fold induction at 150 µM was 6.27 ± 0.75.

And the fold induction at 100 µM [2, 15]?
Its fold induction at 100 µM is 49.8 ± 6.44.

What about the fold induction at 250 µM [2, 16] of the same molecule?
Its fold induction at 250 µM is 41.2 ± 7.32.

What about the fold induction at 100 µM [2, 17] of the same molecule?
Its fold induction at 100 µM is 77.3 ± 6.52.

What about the fold induction at 250 µM [2, 18] of the same molecule?
Its fold induction at 250 µM is 82.4 ± 7.24.
